From publication PMC12123460 (ACS Central Science, 2025)
“Also recorded” adds a separate entry of the source. Where two headings read alike, the source gives them in different places.

Columns and labels:
[1] = molecular target: full length human μ opioid receptor (MOR) (Homo sapiens, UniProt P35372); test: 3H-naltrexone radioligand competition binding, MOR membranes
[2] = molecular target: T1, murine κ opioid receptor (KOR) (Mus musculus, UniProt P33534); test: 3H-naltrexone radioligand competition binding, KOR membranes
human MOR = human MOR (Homo sapiens, UniProt P35372); test: Live cell GloSensor cAMP assay, antagonist mode, MOR-expressing HEK293T cells; settings: 10 μM forskolin, DAMGO at EC80
murine KOR = murine KOR (Mus musculus, UniProt P33534); test: Live cell GloSensor cAMP assay, antagonist mode, KOR-expressing HEK293T cells; settings: for KOR Signaling: GloSensor cAMP, HEK293T, 10 μM forskolin, salvinorin A at EC80
[3] = molecular target: T1, murine κ opioid receptor (KOR); test: biochemical
C56BL/6 mice [4] = test system: C56BL/6 mice
C56BL/6 mice [5] = test: Opioid withdrawal symptoms assay in morphine tolerant mice; settings: 1 h after morphine 20 mg/kg, naloxone 10 mg/kg, #020_E1 30 mg/kg
C56BL/6 mice [6] = test: Conditioned place aversion in morphine tolerant mice
[7] = read-out: MOR Ki binding affinity, 3H-naltrexone displacement, mean from three dose response experiments
[8] = read-out: KOR Ki binding affinity, 3H-naltrexone displacement, mean from three dose response experiments
[9] = read-out: MOR Ki estimate (†), calculated from the Cheng–Prusoff equation based on a single point at 33 μM ligand

COC(=O)[C@@H]1C[C@]2(C)C(C)=C(C)[C@H]1N(Cc1cnn(CC(F)F)c1)[C@H]2C (racemic) [(±)-#56]
Ki [1, 7]: 8.8 µM

COC(=O)[C@@H]1C[C@]2(C)C(c3cc(F)cc(F)c3)=C[C@H]1N(C1CN(CCO)C1)[C@H]2C (racemic) [(±)-#57]
Ki [2, 8]: 1.1 µM | Ki [1, 7]: 5 µM

COC(=O)C1CC2(C)C(c3ccco3)=CC1N(C(C)CN1CCCC1)C2C (racemic) [(±)-#11]
Ki [2, 8]: 0.4 µM

COC(=O)[C@@H]1C[C@]2(C)C(c3ccc(O)c(OC)c3)=C[C@H]1N(CCN)[C@H]2C [(+)-#33]
Ki [2, 8]: 1.2 µM | Ki [1, 7]: 0.98 µM

CCN1[C@@H]2C=C(C)[C@@](C)(C[C@H]2C(=O)OC)[C@@H]1C (racemic) [(±)-#001]
Ki [1, 7]: 7.1 µM

CCn1cc(CN2C3C=C(c4cccc(O)c4)C(C)(CC3C(=O)OC)C2C)cn1 (stereo not drawn) [#020_E2]
MOR Signaling (human MOR): Antagonist | EC50 (murine KOR): 0.38 µM | KOR Signaling (murine KOR): Antagonist | Ki [3]: 0.0011 µM

CN1CC[C@]23c4c5ccc(O)c4O[C@H]2[C@@H](O)C=C[C@H]3[C@H]1C5 [morphine]
Tail flick latency (C56BL/6 mice [4]; 20 mg/kg i.p.): significantly increased tail flick latency

CCCCC1=C[C@@H]2[C@H](C(=O)OC)C[C@@]1(C)[C@H](C)N2C[C@@H]1CCO1 (racemic) [(±)-#09]
Ki ([2]; read-out: KOR Ki estimate (†), calculated from the Cheng–Prusoff equation based on a single point at 33 μM ligand): 12 µM | Ki [1, 9]: 14 µM

C=CCN1CC[C@]23c4c5ccc(O)c4O[C@H]2C(=O)CC[C@@]3(O)[C@H]1C5 [naloxone]
Precipitated opioid withdrawal symptoms (jumps, wet-dog shakes, rearing, forepaw shakes) (C56BL/6 mice [5]): induced behaviors consistent with aversive withdrawal | Time spent in the antagonist-paired chamber pre- vs post-conditioning (C56BL/6 mice [6]; morphine tolerant mice, withdrawal precipitated by the antagonist): marked decrease in time spent in the antagonist-paired chamber; also recorded: significantly less time in the chamber | CPA score (C56BL/6 mice [6]; test minus pretest time in drug-paired compartment): avoided the treatment compartment to a greater extent | i.p. dose required to return tail flick latency to baseline levels (C56BL/6 mice [4]; blocking of 20mg/kg morphine induced analgesia, dose response): 10 mg/kg

CCN1CC(N2[C@@H]3C=C(c4ccccc4O)[C@@](C)(C[C@H]3C(=O)OC)[C@@H]2C)C1 (racemic) [(±)-#05]
Ki [2, 8]: 8 µM | Ki [1, 9]: 16 µM

3H-naltrexone [reference compound]
Kd ([2]; read-out: Kd of the radioligand in KOR membrane preparation, saturation experiments, nonspecific binding with 33 μM unlabeled naloxone): 0.00271 µM | Kd ([1]; read-out: Kd of the radioligand in MOR membrane preparation, saturation experiments, nonspecific binding with 33 μM unlabeled naloxone): 0.00197 µM

COC(=O)C1CC2(C)C(c3cccc(O)c3)=CC1N(CCOc1c(C)cccc1C)C2C (stereo not drawn) [#017_E2]
MOR Signaling (human MOR): Antagonist | KOR Signaling (murine KOR): Antagonist

COC(=O)C1CC2(C)C(c3cccc(O)c3)=C(C)C1N(C)C2C (stereo not drawn) [#019_E2]
MOR Signaling (human MOR): Antagonist | KOR Signaling (murine KOR): Inverse Agonist

CCn1cc(CN2C3C(C)=C(c4cccc(O)c4)C(C)(CC3C(=O)OC)C2C)cn1 (stereo not drawn) [#031_E2]
MOR Signaling (human MOR): Antagonist | KOR Signaling (murine KOR): Inverse Agonist

CC1=C(c2cccc(O)c2)C2(C)CCC1N(CCc1ccccc1)C2C (stereo not drawn) [#030_E2]
MOR Signaling (human MOR): Antagonist | KOR Signaling (murine KOR): Inverse Agonist
